Data set [1] in a line: Apparent lipophilicity from reverse-phase HPLC at pH 7.4. In kind it is physicochemical. To be noted: not told. The text has this:
(b) Extrapolated reverse phase capacity factors in MOPS buffer at pH 7.4.

In data set [2] the test system is animal behavioral models. Particulars: literature; cited from earlier work.
Data set [3] concerns drug-induced anxiety. To be noted: literature; cited from earlier work.
In data set [4] the test system is 5-HT-3 receptor. To be noted: literature, cited from earlier work.
The target in data set [5] is T1, 5-HT-3 receptor (Rattus norvegicus, UniProt P35563).
T1 sequence (P35563 24-483): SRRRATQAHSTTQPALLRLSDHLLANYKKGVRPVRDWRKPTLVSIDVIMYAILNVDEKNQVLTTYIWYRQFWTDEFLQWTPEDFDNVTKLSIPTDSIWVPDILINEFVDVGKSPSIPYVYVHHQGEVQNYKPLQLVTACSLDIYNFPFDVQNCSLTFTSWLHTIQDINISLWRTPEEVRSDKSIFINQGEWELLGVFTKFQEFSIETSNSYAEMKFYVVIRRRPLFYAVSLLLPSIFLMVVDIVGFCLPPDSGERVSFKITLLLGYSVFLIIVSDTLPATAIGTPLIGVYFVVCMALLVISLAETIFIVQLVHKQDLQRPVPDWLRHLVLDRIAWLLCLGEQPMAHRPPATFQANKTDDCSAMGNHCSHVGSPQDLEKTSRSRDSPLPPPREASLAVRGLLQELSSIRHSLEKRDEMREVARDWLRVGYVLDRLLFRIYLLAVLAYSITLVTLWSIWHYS
In kind it is binding. Also on record: from tissue; host or cells: rat entorhinal cortex homogenate / membranes. To be noted: rat entorhinal cortex. The text has this:
In all FIGS. 1-3, triangles represent total binding, open circles represent non-specific binding, and darkened circles represent specific binding.

Data set [6] has as its target T1, 5-HT-3 receptor.
Description: Evaluation of the compounds of the present invention was performed by incubating the radiolabeled agent with tissue homogenates known to contain these receptors. By inhibiting the binding with various concentrations of competing ligands the relative potencies of unlabeled analogs were determined. The apparent lipophilicities of the compounds of the invention were estimated from the retention times in reverse-phase HPLC at pH 7.4.
In data set [7] the test system is emesis. To be noted: literature; cited from earlier work.
Where [8] appears, read: extrapolated reverse phase capacity factors in MOPS buffer, read-out: log Papp (apparent lipophilicity).
Setting [9] is: Ki, displacement of 0.64 nM [^125 I]-4 binding, Table 3, rat entorhinal cortex homogenate, HEPES buffer, nine concentrations 0.3 to 300 nM, triplicates.

Where two headings read alike, the source gives them in different places.

For `C=CCOc1ccc(I)cc1C(=O)N[C@@H]1CN2CCC1CC2` [TDP 918], in data set [1] (setting [8]), the chromatographic logD was 2.76.
Turning to `COc1cc(N)c(Cl)cc1C(=O)N[C@H]1CN2CCC1CC2` [(R)-zacopride, 5-chloro-4-amino-2-methoxy-N-(3-quinuclidinyl)benzamide], the cognitive-enhancing properties result in data set [2] was “shows cognitive-enhancing properties”. In addition, the “block of drug-induced anxiety” value in data set [3] was “able to block drug-induced anxiety”. In addition, the “affinity for the 5-HT-3 receptor relative to (S)-zacopride” value in data set [4] was “ten times lower affinity”.
For `O=C(N[C@@H]1CN2CCC1CC2)c1cc(Cl)cc(I)c1OCCCF` [TDP 1050], the chromatographic logD in data set [1] (setting [8]) was 2.38.
The same measure, in the same setting: in the case of `C=CCOc1c(I)cc(Cl)cc1C(=O)N[C@@H]1CN2CCC1CC2` [TDP 1046] it was 2.63; in that of `CCCOc1c(I)cc(Cl)cc1C(=O)N[C@@H]1CN2CCC1CC2` [TDP 1065], 2.7.
Regarding `C#CCOc1c(I)cc(Cl)cc1C(=O)N[C@@H]1CN2CCC1CC2` [TDP 1053], the chromatographic logD in data set [1] (setting [8]) was 2.57.
Regarding `COc1cc([125I])cc(C(=O)N[C@@H]2CN3CCC2CC3)c1OC` [[^125 I]-4, (S)-N-[3-(1-azabicyclo[2.2.2]octyl)]-2,3-dimethoxy-5-[^125 I]iodobenzamide], the Kd in data set [5] was 1.5 nM.
On to `c1ccc2nc(N3CCNCC3)ccc2c1` [quipazine], for which the Ki in data set [6] (setting [9]) is 0.48 nM.
In data set [6] (setting [9]), `CN1[C@@H]2CC[C@H]1C[C@@H](OC(=O)c1cc(Cl)cc(Cl)c1)C2` [bemestron] displayed a Ki of 18.3 nM.
Turning to `CCOc1cc(Br)cc(C(=O)N[C@@H]2CN3CCC2CC3)c1OC` [TDP 924], the chromatographic logD in data set [1] (setting [8]) was 2.14.
The same measure, in the same setting: the value for `COc1ccc(I)cc1C(=O)N[C@@H]1CN2CCC1CC2` [TDP 915] was 2.15; that for `O=C(N[C@@H]1CN2CCC1CC2)c1cc(Cl)cc(I)c1OCCF` [TDP 1056] was 1.95.
With `COc1cc(Cl)cc(C(=O)N[C@@H]2CN3CCC2CC3)c1OC/C=C/I` [TDP 984], the chromatographic logD in data set [1] (setting [8]) is 2.58.
`COc1cc(Cl)cc(C(=O)N[C@@H]2CN3CCC2CC3)c1OCCF` [TDP 994]: in data set [1] (setting [8]), the chromatographic logD is 1.58.
For `COc1c(I)cc(Cl)cc1C(=O)N[C@@H]1CN2CCC1CC2` [TDP 1040], the chromatographic logD in data set [1] was 2.34.
With `CC(C)Oc1ccc(I)cc1C(=O)N[C@@H]1CN2CCC1CC2` [TDP 919], the chromatographic logD in data set [1] (setting [8]) is 2.52.
`COc1cc(N)c(Cl)cc1C(=O)N[C@@H]1CN2CCC1CC2` [(S)-zacopride, 5-chloro-4-amino-2-methoxy-N-(3-quinuclidinyl)benzamide]: in data set [7], the antiemetic activity entry is “effective antiemetic agent”. The figures for the Ki in data set [6] (setting [9]) and in data set [4] ((S)-form of zacopride) were 0.38 nM and 0.3 nM, respectively. Besides, the “block of drug-induced anxiety” value in data set [3] is “inactive”.
As for `COc1cc(Br)cc(C(=O)N[C@@H]2CN3CCC2CC3)c1OC` [TDP 923], the chromatographic logD in data set [1] (setting [8]) is 1.74.
Still for that read-out and setting: the value for `CC(C)Oc1c(I)cc(Cl)cc1C(=O)N[C@@H]1CN2CCC1CC2` [TDP 1062] was 2.45; that for `CCOc1c(OC)cc(I)cc1C(=O)N[C@@H]1CN2CCC1CC2` [TDP 1022] was 2.19.
In data set [6] (setting [9]), `COc1cc(I)cc(C(=O)N[C@@H]2CN3CCC2CC3)c1OC` [TDP 960] had a Ki of 1.35 nM. Besides, the chromatographic logD in data set [1] (setting [8]) was 1.87.
With `CCOc1ccc(I)cc1C(=O)N[C@@H]1CN2CCC1CC2` [TDP 916], the chromatographic logD in data set [1] (setting [8]) was 2.38.
As for `COc1cc(I)cc(C(=O)N[C@H]2CN3CCC2CC3)c1OC` [TDP 991, (R)-N-[3-1-Azabicyclo [2.2.2.]octyl]-5-iodo-2,3-dimethoxy-benzamide], the affinity in data set [6] (setting [9]) corresponds to a Ki of 19 nM. Further, in data set [1] (setting [8]), the chromatographic logD is 1.87.
With `COc1c(OCCF)cc(Cl)cc1C(=O)N[C@@H]1CN2CCC1CC2` [TDP 999], the chromatographic logD in data set [1] (setting [8]) is 1.7.
The same measure, in the same setting: in the case of `CCOc1c(I)cc(Cl)cc1C(=O)N[C@@H]1CN2CCC1CC2` [TDP 1059] it was 2.47.
As for `CCN1CCC[C@H]1CNC(=O)c1cc(I)cc(OC)c1OC` [epidepride], the affinity in data set [6] corresponds to a Ki of 1040 nM.
As to `O=C(N[C@@H]1CN2CCC1CC2)c1cc(I)ccc1OCCF` [TDP 920], in data set [1] (setting [8]), the chromatographic logD was 2.15.
Same read-out and setting: in the case of `O=C(N[C@@H]1CN2CCC1CC2)c1cc(I)ccc1OCCCF` [TDP 921] it was 2.44.
The same measure, in the same setting: in the case of `COc1ccc(F)cc1C(=O)N[C@@H]1CN2CCC1CC2` [TDP 1087] it was 1.34; in that of `COc1ccc(Br)cc1C(=O)N[C@@H]1CN2CCC1CC2` [TDP 922], 2.02.
The same measure, in the same setting: in the case of `CCCOc1ccc(I)cc1C(=O)N[C@@H]1CN2CCC1CC2` [TDP 9l7] it was 2.81.

Broadly, the Kd is the free concentration of one partner at which half of the binding sites on the other are occupied at equilibrium, for simple one-to-one binding. Low readings indicate a tighter complex, high ones a looser complex. For orientation: Ki means the dissociation constant of the complex between target and ligand, obtained from inhibition or displacement.
